# Experimental data taken from US20230248626A1, “Compositions Comprising (Bio)-Alkanediols” (Symrise AG, priority 0001, published 2023).
# Tests used:
# human sebaceous glands = assay: Sebum production of micro-dissected, cultured human sebaceous glands (lipids/proteins after six days); type: cell-based; set-up: sebum reduction: concentration or dose not given beside the values; settings: compared to untreated control; six days; single donor (FIG. 4)
# Procedure, shortened: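 Micro-dissected human sebaceous glands cultured six days in medium with alkanediols at various concentrations; plain medium as untreated control, 5 μM Capsaicin as positive control. Lipids and proteins then quantified; sebum production expressed as mg lipids/mg proteins.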
# [1] = Sensory evaluation on the backside of the hand (spreading, fatty/greasy skin feel, absorption), untrained panellists; settings: for Absorption/remaining residue with alkanediol: scale 1 to 5
# Protocol: For evaluating the sensory behaviour, liquid lipophilic components specified in the following table were blended with 1,2-heptanediol or 2,3-heptanediol or a mixture of 1,2-heptanediol and 2,3-heptanediol or 1,2-octanediol or 2,3-octanediol or a mixture of 1,2-octanediol and 2,3-octanediol (formulation) in a ratio of 85:15 and assessed by untrained panellists in comparison to the liquid lipophilic component without addition of the specified alkanediols (placebo).
# The test procedure was carried as follows: For evaluating the sensory behaviour of 1,2-alkanediols and/or 2,3-alkanediols in combination with different liquid lipophilic components, oil components specified in the following table were blended with a 1,2-alkanediol or a 2,3-alkanediol or a mixture including a 1,2-alkanediol and a 2,3-alkanediol in a ratio as specified in Table 53 and assessed by untrained panellists in comparison to the liquid lipophilic component without addition of the 1,2-alkanediol or 2,3-alkanediol or the mixture including a 1,2-alkanediol and 2,3-alkanediol (placebo).
# Test Procedure: • Hands were pre-washed with liquid soap by following a defined procedure; 30 μl of corresponding sample was applied on the backside of each hand (randomized); • After 30 s the spreading behaviour of the respective formulation on skin was evaluated versus the respective oil component without 1,2-heptanediol on a scale from 1 to 5 (1=low spreading; 5=high spreading); • The samples were distributed with the fingertips of middle and forefinger with 2×5 cycles; • After 2 minutes, the fatty/greasy skin feel was evaluated on a scale from 1 to 5 (1=low fatty/greasy skin feel; 5=high fatty/greasy skin feel); • Furthermore the applicants were asked to assess the absorption, i.e. the impression of amount of remaining residue on the skin on a scale from 1 to 5 (1=low absorption; 5=high absorption).
# [2] = test system: reactive oxygen species (ROS) on ex vivo skin; assay: DCF assay, ROS score on ex vivo skin, aqueous/alcoholic (ethanolic) test system; type: cell-based; settings: vehicle (EtOH/H2O) plus alkanediol only
# Protocol: A dichlorofluorescein test (DCF) assay was performed in order to determine the amount of reactive oxygen species (ROS) on ex vivo skin treated with different test samples in a lipophilic or an aqueous/alcoholic system as described below.
# DCF assay—assay principle: Ex vivo skin was incubated with 2′,7′-dichlorodihydrofluorescein diacetate at 37° C., 5% CO2. After PBS washing, samples were exposed or not to cumene hydroperoxide. Immediately after exposure, ex vivo skin samples were frozen in liquid nitrogen and 5 μm cryostat sections were made and fixed with acetone to allow the visualisation of fluorescence generated by ROS in cells of the reconstructed skins. The resulting fluorescence was measured at EX/EM 504/524 nm. Green fluorescence was quantified in ex vivo skin using ImageJ software. The depth of immunostaining was measured as follows: green DCFH-DE positive cells were automatically detected using Histolab software and the distance between dermal epidermal junction and the deepest positive cells were measured in each condition. Means were compared using a student's test. […]
# The image acquisition was performed by using Olympus BX51 microscope and Olympus DP70 camera. For each skin sample two skin sections have been taken and the related fluorescent images acquired and analyzed. Thus, for each test condition, 12 images have been acquired and analyzed (i.e. 12 data). […]
# [3] = blend with Argan Oil vs without
# [4] = blend with Avocado Oil vs without
# [5] = blend with Cacao butter vs without
# [6] = blend with Caprylic Capric Triglyceride (neutral oil), rows r50-r56, vs without
# [7] = blend with Caprylic Capric Triglyceride (neutral oil), rows r50-r56
# [8] = blend with Castor Oil vs without
# [9] = blend with Cetearyl Nonanoate, rows r199-r201, vs without
# [10] = blend with Cetearyl Nonanoate, rows r199-r201
# [11] = blend with Coconut Oil vs without
# [12] = blend with Grapeseed Oil vs without
# [13] = blend with Helianthus Annuus (Sunflower) Seed Oil vs without
# [14] = blend with Helianthus Annuus (Sunflower) Seed Oil
# [15] = blend with Octocrylene (Neo Heliopan 303), vs without
# [16] = blend with Octocrylene (Neo Heliopan 303)
# [17] = blend with Olive Oil vs without
smiles,measurement,setting,value
"CCCCCC(O)CO (centres unmarked) [1,2-heptanediol]",sebum reduction,human sebaceous glands,22%
same,Absorption/remaining residue Delta,[1]; [3],1
same,Absorption/remaining residue with alkanediol,[1]; blend with Argan Oil,2.8
same,Absorption/remaining residue Delta,[1]; [4],1.2
same,Absorption/remaining residue with alkanediol,[1]; blend with Avocado Oil,2.6
same,Absorption/remaining residue Delta,[1]; blend with Butyrospermum Parkii (Shea) Butter vs without,1.5
same,Absorption/remaining residue with alkanediol,[1]; blend with Butyrospermum Parkii (Shea) Butter,2.7
same,Absorption/remaining residue Delta,[1]; [5],0
same,Absorption/remaining residue with alkanediol,[1]; blend with Cacao butter,3.6
same,Absorption/remaining residue Delta,[1]; [6],0.6
same,Absorption/remaining residue with alkanediol,[1]; [7],2.7
same,Absorption/remaining residue Delta,[1]; [8],0.4
same,Absorption/remaining residue with alkanediol,[1]; blend with Castor Oil,4
same,Absorption/remaining residue Delta,"[1]; blend with Cetearyl Nonanoate (SymMollient S), row r161, vs without",1.2
same,Absorption/remaining residue with alkanediol,"[1]; blend with Cetearyl Nonanoate (SymMollient S), row r161",2
same,Absorption/remaining residue Delta,[1]; [9],1.6
same,Absorption/remaining residue with alkanediol,[1]; [10],3.2
same,Absorption/remaining residue Delta,[1]; blend with Chlorella oil (biotech) vs without,0.2
same,Absorption/remaining residue with alkanediol,[1]; blend with Chlorella oil (biotech),3
same,Absorption/remaining residue Delta,[1]; [11],1.4
same,Absorption/remaining residue with alkanediol,[1]; blend with Coconut Oil,2
same,Absorption/remaining residue Delta,[1]; blend with Ethylhexyl Methoxycinnamate (Neo Heliopan AV) vs without,0.5
same,Absorption/remaining residue with alkanediol,[1]; blend with Ethylhexyl Methoxycinnamate (Neo Heliopan AV),3
same,Absorption/remaining residue Delta,[1]; blend with Ethylhexyl Salicylate (Neo Heliopan OS) vs without,1.3
same,Absorption/remaining residue with alkanediol,[1]; blend with Ethylhexyl Salicylate (Neo Heliopan OS),2.2
same,Absorption/remaining residue Delta,[1]; [12],0.2
same,Absorption/remaining residue with alkanediol,[1]; blend with Grapeseed Oil,2.8
same,Absorption/remaining residue Delta,[1]; [13],1.3
same,Absorption/remaining residue with alkanediol,[1]; [14],2
same,Absorption/remaining residue Delta,[1]; blend with Hexyldecanol (Eutanol G) vs without,0.2
same,Absorption/remaining residue with alkanediol,[1]; blend with Hexyldecanol (Eutanol G),2.7
same,Absorption/remaining residue Delta,[1]; blend with Homosalate (Neo Heliopan HMS) vs without,0.3
same,Absorption/remaining residue with alkanediol,[1]; blend with Homosalate (Neo Heliopan HMS),2.5
same,Absorption/remaining residue Delta,[1]; blend with Isoamyl p-Methoxycinnamate (Neo Heliopan E 1000) vs without,1.7
same,Absorption/remaining residue with alkanediol,[1]; blend with Isoamyl p-Methoxycinnamate (Neo Heliopan E 1000),2.5
same,Absorption/remaining residue Delta,[1]; blend with Microalgae oil vs without,1.2
same,Absorption/remaining residue with alkanediol,[1]; blend with Microalgae oil,2.5
same,Absorption/remaining residue Delta,"[1]; blend with Octocrylene (Neo Heliopan 303), row r184 (UV filter), vs without",1.3
same,Absorption/remaining residue with alkanediol,"[1]; blend with Octocrylene (Neo Heliopan 303), row r184 (UV filter)",2.7
same,Absorption/remaining residue Delta,[1]; [15],0.5
same,Absorption/remaining residue with alkanediol,[1]; [16],3.5
same,Absorption/remaining residue Delta,[1]; [17],1.6
same,Absorption/remaining residue with alkanediol,[1]; blend with Olive Oil,2.4
same,Absorption/remaining residue Delta,[1]; blend with Propanediol Dicaprylate/Dicaprate (Symollient PDCC) vs without,0.1
same,Absorption/remaining residue with alkanediol,[1]; blend with Propanediol Dicaprylate/Dicaprate (Symollient PDCC),2.4
same,Absorption/remaining residue Delta,[1]; blend with Prunus Amygdalus Dulcis (Sweet Almond) Oil vs without,1.5
same,Absorption/remaining residue with alkanediol,[1]; blend with Prunus Amygdalus Dulcis (Sweet Almond) Oil,2.2
same,Absorption/remaining residue Delta,[1]; blend with Simmondsia Chinensis (Jojoba) Seed Oil vs without,1.2
same,Absorption/remaining residue with alkanediol,[1]; blend with Simmondsia Chinensis (Jojoba) Seed Oil,2.5
same,antioxidative efficacy without antioxidant (in words),[2],do not have an antioxidative efficacy
"CCCCC(O)C(C)O (centres unmarked) [2,3-heptanediol]",sebum reduction,human sebaceous glands,30%
same,Absorption/remaining residue Delta,[1]; [3],1.4
same,Absorption/remaining residue with alkanediol,[1]; blend with Argan Oil,2.4
same,Absorption/remaining residue Delta,[1]; [4],1.4
same,Absorption/remaining residue with alkanediol,[1]; blend with Avocado Oil,2.4
same,Absorption/remaining residue Delta,[1]; [5],0.4
same,Absorption/remaining residue with alkanediol,[1]; blend with Cacao butter,3.2
same,Absorption/remaining residue Delta,[1]; [6],0.3
same,Absorption/remaining residue with alkanediol,[1]; [7],3
same,Absorption/remaining residue Delta,[1]; [8],0.6
same,Absorption/remaining residue with alkanediol,[1]; blend with Castor Oil,3.8
same,Absorption/remaining residue Delta,[1]; [9],1.0
same,Absorption/remaining residue with alkanediol,[1]; [10],3.8
same,Absorption/remaining residue Delta,[1]; [11],1
same,Absorption/remaining residue with alkanediol,[1]; blend with Coconut Oil,2.4
same,Absorption/remaining residue Delta,[1]; [12],0.8
same,Absorption/remaining residue with alkanediol,[1]; blend with Grapeseed Oil,2.2
same,Absorption/remaining residue Delta,[1]; [13],1
same,Absorption/remaining residue with alkanediol,[1]; [14],2.6
same,Absorption/remaining residue Delta,[1]; [15],0.5
same,Absorption/remaining residue with alkanediol,[1]; [16],3.5
same,Absorption/remaining residue Delta,[1]; [17],2
same,Absorption/remaining residue with alkanediol,[1]; blend with Olive Oil,2
same,antioxidative efficacy without antioxidant (in words),[2],do not have an antioxidative efficacy
"CCCCCC(O)C(C)O (centres unmarked) [2,3-octanediol]",Absorption/remaining residue Delta,[1]; [3],1.6
same,Absorption/remaining residue with alkanediol,[1]; blend with Argan Oil,2.2
same,Absorption/remaining residue Delta,[1]; [4],1.4
same,Absorption/remaining residue with alkanediol,[1]; blend with Avocado Oil,2.4
same,Absorption/remaining residue Delta,[1]; [5],0.8
same,Absorption/remaining residue with alkanediol,[1]; blend with Cacao butter,2.8
same,Absorption/remaining residue Delta,[1]; [8],1.4
same,Absorption/remaining residue with alkanediol,[1]; blend with Castor Oil,3
same,Absorption/remaining residue Delta,[1]; [11],1.2
same,Absorption/remaining residue with alkanediol,[1]; blend with Coconut Oil,2.6
same,Absorption/remaining residue Delta,[1]; [12],0.2
same,Absorption/remaining residue with alkanediol,[1]; blend with Grapeseed Oil,2.4
same,Absorption/remaining residue Delta,[1]; [13],0.4
same,Absorption/remaining residue with alkanediol,[1]; [14],3.4
same,Absorption/remaining residue Delta,[1]; [15],1.5
same,Absorption/remaining residue with alkanediol,[1]; [16],2.5
same,Absorption/remaining residue Delta,[1]; [17],1.4
same,Absorption/remaining residue with alkanediol,[1]; blend with Olive Oil,2.6
